Here are results for eleven sequences from publication PMC5821110 (Cancer immunology research, 2017).

The first experiment relates to HLA-A2. The experiment can be described thus: Peptide binding affinity: stabilization of HLA-A2 on TAP-deficient T2 cells. The conditions noted are these: stabilization (normalized mean fluorescence intensity) of HLA-A2 on TAP-deficient T2 cells by test peptide relative to a non-binding peptide; six hours incubation; flow cytometry. A general note: Flow cytometry measures light scatter and fluorescence of single cells or particles in a stream.
With RIQGISPKI [LI], the Observed relative binding was 2.34.
Still for that read-out and setting: the value for RAQGISPKI [LA] was 1.31.
On the same count and under the same terms, the value for RLQGISPKI [Nat] was 3.61; that for FLQGISPKA [RF-IA] was 4.78; that for FLQGISPKV [RF-IV] was 4.25.
Same read-out and setting: the value for RLQGISPKL [IL] was 3.89.
The sequence FLQGISPKI [RF] registered an Observed relative binding of 4.97.
Still for that read-out and setting: the value for RLQGISPKP [IP] was 1.07.
Same read-out and setting: in the case of RLQGISPKA [IA] it was 3.79.
Still for that read-out and setting: the value for RLQGISPKV [IV] was 3.88.

A further experiment deals with E.G7-OVA PD-L1^high tumors. The experiment can be described thus: Tumor treatment study: peptide immunization after OT-1 adoptive transfer. Type of experiment: in vivo, C57BL/6 mice. To be noted: tumors removed on day 40, flow cytometry; 100 µg peptide in CFA.
Take SIINTEKL [FT]: the “Number of CD8 TILs (percent of CD45^+ cells) compared to high-affinity vaccination” value is reported as “significantly increased”.
